A word on the IC50: it is the midpoint of a concentration-inhibition curve. For orientation: AUC means the area under the concentration-time curve, a measure of exposure. The clearance is the volume of plasma or blood freed of the substance per unit of time. One may read the bioavailability as the share of a dose that reaches the circulation, judged against a reference dose that is usually intravenous.

Molecules are shown by their SMILES. Read-outs that look alike come from different tables or passages of the source.

One data set concerns p-ERK in KYSE-520 cells. The data set is described as follows: Determination of p-ERK in KYSE-520 cells (HTRF). Type of data set: cell-based. Particulars: Homo sapiens.
The subject of another data set is KYSE-520 cells. The data set is described as follows: KYSE-520 cell proliferation experiment (CellTiter-Glo, 7 days). To be noted: Homo sapiens. Type of data set: cell-based.
A short description of data set [1]: Pharmacokinetics assay in rats. It counts as in vivo, SD rats. Particulars: rat; for AUC / clearance / half-life / bioavailability / Cmax: male, SD, plasma; for AUC: read-out: Area under curve AUC; for clearance: read-out: Clearance CL_obs; for half-life: read-out: Half-life T1/2 (converted); for bioavailability: PO 5 mg/kg vs IV 1 mg/kg, read-out: Bioavailability F; for Cmax: read-out: Maximum plasma concentration Cmax. Here is the method: Rats were used as test animals. The drug concentration in plasma at different time points was determined by LC/MS/MS method after intravenous administration or intragastrical administration of the compound of the present invention to rats. The pharmacokinetic behavior of the compound of the present invention was studied and evaluated in rats.
The atropisomer with a RT of 1.495 minutes in Examples 3 and 4, compounds of Example 17, Example 41 and Example 43.
Healthy male SD rats (6-8 weeks old), 3 rats per group.
Intravenous administration: A certain amount of the test compound was weighed, to which 10% by volume of N,N-dimethylacetamide, 33% by volume of triethylene glycol and 57% by volume of water were added to prepare a 1 mg/mL colorless, clear and transparent solution;
Intragastrical administration: A certain amount of the test compound was weighed, to which 0.5% by mass of hypromellose, 0.1% by volume of Tween 80 and 99.4% by volume of water were added to prepare a 1 mg/mL white suspension.
After an overnight fast, the SD rats were intravenously administered the test compound at an administration dose of 1 mg/kg, or intragastrically administered the test compound at an administration dose of 5 mg/kg.
The rats were intravenously administered the compound of the present invention. 0.2 ml of blood was taken from the jugular vein at 0.083, 0.25, 0.5, 1, 2, 4, 8 and 24 hours after the administration. The samples were placed in tubes containing EDTA-K2, and centrifuged at 4000 rpm and 4° C. for 5 minutes to separate the blood plasma. The plasma samples were stored at −75° C.
Or, the rats were intragastrically administered the compound of the present invention. 0.2 ml of blood was taken from the jugular vein at 0.25, 0.5, 1, 2, 4, 8 and 24 hours after the administration. The samples were placed in tubes containing EDTA-K2, and centrifuged at 4000 rpm and 4° C. for 5 minutes to separate the blood plasma. The plasma samples were stored at −75° C.
The content of the test compound in the plasma of rat after intragastrical administration of the test compound at different concentrations was determined: 50 μL of rat plasma at each time after administration was taken, to which 200 μL of a solution (50 ng/mL) of internal standard dexamethasone in acetonitrile was added. The plasma was vortex-mixed for 30 seconds, and centrifuged at 4700 rpm and 4° C. for 15 minutes. The supernatant was taken from the plasma samples, and a three-fold dilution was carried out by adding water. 2.0 μL of the supernatant was used for LC/MS/MS analysis.

The target of data set [2] is T1, SHP2 wild-type phosphatase (recombinantly expressed full-length SHP2, aa 1-593) (Homo sapiens, UniProt Q06124).
T1 sequence (Q06124 1-593): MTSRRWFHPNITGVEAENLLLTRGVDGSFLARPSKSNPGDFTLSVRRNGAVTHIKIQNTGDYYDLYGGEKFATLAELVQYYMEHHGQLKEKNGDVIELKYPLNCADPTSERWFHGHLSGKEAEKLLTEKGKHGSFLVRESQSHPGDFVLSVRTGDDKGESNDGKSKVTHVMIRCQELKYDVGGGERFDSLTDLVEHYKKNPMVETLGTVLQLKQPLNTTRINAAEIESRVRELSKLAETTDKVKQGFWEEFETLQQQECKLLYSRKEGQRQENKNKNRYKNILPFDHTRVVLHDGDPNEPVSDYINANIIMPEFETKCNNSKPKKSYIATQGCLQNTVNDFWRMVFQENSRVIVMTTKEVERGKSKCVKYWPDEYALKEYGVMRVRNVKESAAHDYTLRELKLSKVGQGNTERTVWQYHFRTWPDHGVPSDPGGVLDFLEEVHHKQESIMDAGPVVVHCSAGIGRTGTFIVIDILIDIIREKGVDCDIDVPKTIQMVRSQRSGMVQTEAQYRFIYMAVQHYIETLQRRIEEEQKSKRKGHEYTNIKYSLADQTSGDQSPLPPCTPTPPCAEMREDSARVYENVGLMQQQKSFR
As to the kind of experiment: In vitro activity on SHP2 wild-type phosphatase (DiFMUP fluorescence).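 Further: enzyme preincubated at room temperature, then DiFMUP reaction run at room temperature and halted with SDS, potency derived from a logistic curve fit.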 Particulars: wild-type full-length SHP2, activated polypeptide IRS1 0.5 nM, DiFMUP 30 μM.
Experimental: 0.2 nM recombinantly expressed full-length SHP2 (aa 1-593), 0.5 nM activated polypeptide IRS1 with double phosphorylation sites (sequence: H2N-LN(pY)IDLDLY(dPEG8)LST(pY)ASINFQK-amide) and a series of concentrations of the test compound (final concentrations were 1 μM, 0.3 μM, 0.1 μM, 0.03 μM, 0.01 μM, 0.003 μM, 0.001 μM, 0.0003 μM, 0.0001 μM, 0.00003 μM) were added to the phosphatase reaction solution (60 mM HEPES, pH 7.5 0.005% Brij-35, 75 mM NaCl, 75 mM KCl, 1 mM EDTA, 5 mM DTT). The reaction solution was shaked (350 rpm) at room temperature for 30 minutes. The reaction substrate DiFMUP with a final concentration of 30 μM was added, and the reaction solution was reacted at room temperature for 30 minutes. The phosphatase reaction was stopped by adding 5 μL of stop solution (60 mM HEPES, pH 7.5, 0.2% SDS). Ex358 nm/Em455 fluorescence value was read on the fluorescence plate reader MD SpectraMax.
The IC50 value of the compound was calculated using the four-parameter logit method. In the following formula, x represents the logarithmic form of the compound concentration, and F(x) represents the effect value (the inhibition rate of cell proliferation under the given concentration condition): F(x)=((A−D)/(1+((x/C)^B)))+D. A, B, C and D are four parameters. Different concentrations correspond to different inhibition rates, based on which an inverse curve was plotted, and the IC50 of the inhibitor was calculated from the curve. The IC50 of the compound was calculated with Primer premier 6.0.

Consider `CNc1nccc(Sc2c(C)nc(N3CCC4(CC3)Cc3ncccc3[C@H]4N)n3ccnc23)c1Cl` [Example 41, (S)-1′-(8-((3-Chloro-2-(methylamino)pyridin-4-yl)thio)-7-methylimidazo[1,2-c]pyrimidin-5-yl)-5,7-dihydrospiro[cyclopenta[b]pyridine-6,4′-piperidin]-5-amine], for which the IC50 with p-ERK in KYSE-520 cells (2 hours) was determined as 14 nM. Besides, 58.3 nM corresponded to half-maximal inhibition with KYSE-520 cells (IC50). Further, in data set [1] (IV 1 mg/kg), the AUC is 1.13 ± 0.21 µg·h/mL, the clearance is 0.876 ± 0.156 L/h/kg, the half-life was 5.33 ± 0.11 h and the “Apparent distribution volume Vss_obs” value stood at 4.75 ± 0.72 L/kg. In data set [1], the bioavailability is 67.6 ± 10.9%. Further, in data set [1] (PO 5 mg/kg), the area under the curve (AUC) is 3.88 ± 0.631 µg·h/mL, the half-life is 4.22 ± 0.11 h and the Cmax came out at 0.339 ± 0.088 µg/mL. For the same compound, the concentration for half-maximal inhibition (IC50) in data set [2] was determined as 2.1 nM.
`CNc1nccc(Sc2cnc(N3CCC4(CC3)Cc3ncccc3[C@H]4N)n3ccnc23)c1Cl` [Example 43, (S)-1′-(8-((3-Chloro-2-(methylamino)pyridin-4-yl)thio)imidazo[1,2-c]pyrimidin-5-yl)-5,7-dihydrospiro[cyclopenta[b]pyridine-6,4′-piperidin]-5-amine]: the IC50 in the data set with p-ERK in KYSE-520 cells (KYSE-520, 2 h) is 4.8 nM. In the data set with KYSE-520 cells, the IC50 came out at 30.4 nM. In data set [1] (IV 1 mg/kg), the AUC was 6.64 ± 1.36 µg·h/mL, the clearance was found to be 0.151 ± 0.0312 L/h/kg, the half-life was 4.71 ± 0.27 h and the “Apparent distribution volume Vss_obs” value turned out to be 0.765 ± 0.082 L/kg. For the same compound, the bioavailability in data set [1] turned out to be 75.4 ± 7.5%. For the same compound, in data set [1] (PO 5 mg/kg), the AUC came to 25.2 ± 2.5 µg·h/mL, the half-life is 4.17 ± 0.14 h and the Cmax is 2.51 ± 0.405 µg/mL. Moreover, in data set [2], the IC50 turned out to be 2 nM.

These data come from patent US20220073521A1, “PYRIMIDINE AND FIVE-MEMBERED NITROGEN HETEROCYCLE DERIVATIVE, PREPARATION METHOD THEREFOR, AND MEDICAL USES THEREOF” (Tuojie Biotech (Shanghai) Co., Ltd., priority 2018, published 2022).
